Measurements: patent US20220256890A1, “ANIMAL FEED SUPPLEMENT AND ANIMAL FEED COMPOSITION” (MOOTRAL INNOVATIONS LIMITED, priority 2019, published 2022)

System: rumen inoculum
Assay: in vitro incubation of test materials with rumen inoculum, methane measured by micro-gas chromatograph
Assay type: cell-based, dairy cows
Conditions: Example 2, no garlic, 24 hour incubation
Method: Rumen inoculum was obtained before the morning feeding from 3 rumen fistulated dairy cows on a diet composed of 50% maize silage and 50% wilted grass silage (on dry matter basis) supplemented with some straw and urea. Additionally, soybean meal and balanced compound feed were administered to fulfil the animals' requirements for milk production. Test materials were incubated in 125-mL flasks containing 25 mL of CO2-saturated bicarbonate/phosphate buffer (containing 3.58 g Na2HPO4.12H2O, 1.55 g KH2PO4, 0.124 g MgCl2.6H2O, 8.74 g NaHCO3 and 1.71 g NH4HCO3 per liter of distilled water) and rumen inoculum, in triplicate per test material (3 biological replicates). A mixture of maize silage (crude protein 65.6 g kg^−1, crude fat 27.9 g kg^−1, crude fibre 145 g kg^−1 and starch 410 g kg DM^−1), grass silage (crude protein 153 g kg^−1, crude fat 28.8 g kg^−1, crude fibre 277 g kg^−1 and sugar 78.5 g kg^−1) and dairy concentrate (crude protein 183 g kg^−1, crude fibre 29 g kg^−1 an sugar 89 g kg^−1) was used as the substrate (30/30/40, DM weight basis, 250 mg flask^−1). The test materials (garlic powder, eugenol, geranyl acetate and coriander oil) were added shortly before the incubation directly into the fluid. All flasks were incubated in a shaking incubator at 39° C. (Edmund Buhler Gmbh, Hechingen, Germany). At the end of the 24 hour incubation, flasks were removed from the incubator and placed in ice water to stop the fermentation. pH, gas pressure and gas composition were measured, and samples were collected for VFA analysis. Different amounts of garlic powder were used providing allicin doses of 0.1 mg, 0.2 mg, 0.4 mg, and 0.8 mg per flask (i.e. 4 mg/l, 8 mg/l, 16 mg/l, and 32 mg/l). A fixed concentration of 500 mg/l (i.e. 12.5 mg/flask) for the other test materials was used. Water was used as a negative control. The amount of methane gas was measured using a micro-gas chromatograph equipped with two gas chromatographic modules and a thermal conductivity detector (3000 micro-GC, Agilent, USA). Ethane (C2H6; 1 mL/flask) was used as internal standard and argon as a carrier gas for both columns. The data obtained with the test materials was normalized to a non-treated control group, i.e. samples receiving the substrate only (negative control). I.e. 100% refers to the value of the negative control. Values below 100% indicate reduction of methane as a result of the additive. Values above 100% indicate an increase in methane production. The synergism between garlic and a component of essential oil was also studied. Synergy was calculated by adding the percentage reduction of methane by garlic alone and eugenol or geranyl acetate alone and then subtracting the percentage reduction of the combination and the component of essential oil. The resulting values were inversed. […] An experiment was conducted to test the dose-dependent effects of the essential oils and the components of the essential oils. The same method and test materials of Example 1 was used in this experiment. Different amounts of garlic powder were used providing allicin doses of 0.1 mg, 0.2 mg, 0.4 mg, and 0.8 mg per flask (i.e. 4 mg/l, 8 mg/l, 16 mg/l, and 32 mg/l). The doses of eugenol, geranyl acetate, coriander oil and bornyl acetate were varied in this experiment whereby 0.25 mg/ml, 0.5 mg/ml, 0.75 mg/ml of test materials was used. Water was used as a negative control. The amount of methane produced for each reaction was measured using the same method as described in Example 1.

[1] = essential oil or component alone 0.25 mg/mL
[2] = essential oil or component alone 0.5 mg/mL
[3] = essential oil or component alone 0.75 mg/mL

For `CC(=O)OC/C=C(\C)CCC=C(C)C` [Geranyl acetate], the production of methane [1] was 436 μmol/reaction, the production of methane [2] was 327 μmol/reaction and the production of methane [3] was 203 μmol/reaction.

`C=CCc1ccc(O)c(OC)c1` [Eugenol] was tested, and the production of methane [1] was 388 μmol/reaction, the production of methane [2] was 310 μmol/reaction and the production of methane [3] was 234 μmol/reaction.

For `CC(=O)OC1CC2CCC1(C)C2(C)C` (stereo not drawn) [Bornyl acetate], the production of methane [1] was 422 μmol/reaction, the production of methane [2] was 353 μmol/reaction and the production of methane [3] was 267 μmol/reaction.
